These results are taken from patent US10865238B1, “Complement factor H antibodies” (Duke University, priority 2017, dated 2020).

One assay relates to A549 cells. Put plainly: Calreticulin translocation to plasma membrane, A549. It is filed as cell-based, human. Conditions: A549, NHS, compared to negative controls. Here is the method: (§1) H460 or A549 cells were treated for 2.5 hr with 1, medium; 2, NHS and CFH mAb (200 μg/ml); 3, NHS and IgG (200 μg/ml); or 4, NHS and Doxorubicin (25 μM).
(§2) In order to see if lung tumor cells undergoing CFH mAb-induced CDC send an ICD signal, human lung tumor cell lines (H460 and A549) were incubated in medium containing complement from the addition of NHS, and treated with CFH mAb, control antibody, or the known ICD inducer doxorubicin (Kepp et al. Oncoimmunology 2014; 3:e955691; Krysko et al. Nat Rev Cancer 2012; 12:860-75.). […] Total calreticulin in whole cell lysates was the same under all conditions.

For a further assay, the system named is H460 cells. Put plainly: Calreticulin translocation to plasma membrane, H460. Conditions: H460, NHS, compared to negative controls. It counts as cell-based, human. Here is the method: as §1, §2
Assay [1] addresses T1, reduced Complement Factor H (CFH) (human, UniProt P08603 19-1231, disulfide bonds reduced with TCEP).
T1 construct: also called reduced CFH; CFH treated with TCEP
The experiment in a line: western blot (immunoblot) on native and TCEP-reduced CFH. On the technique in general: Immunoblotting shows a protein as a band on a membrane.
Experimental: Equimolar amounts of CFH and SCR19-20 proteins (~150 kDa and ~15 kDa, respectively) were treated with Tris-HCl (oxidized) or TCEP (reduced) prior to electrophoresis. The proteins were transferred to PVDF, and the membranes were placed into a "Surf-Blot" apparatus for immunoblot analysis. […] Binding was visualized with an antihuman IgG-HRP conjugate and chemiluminescent substrate, exposing the entire blot to one piece of film.

T1 sequence (P08603 19-1231 limits assumed): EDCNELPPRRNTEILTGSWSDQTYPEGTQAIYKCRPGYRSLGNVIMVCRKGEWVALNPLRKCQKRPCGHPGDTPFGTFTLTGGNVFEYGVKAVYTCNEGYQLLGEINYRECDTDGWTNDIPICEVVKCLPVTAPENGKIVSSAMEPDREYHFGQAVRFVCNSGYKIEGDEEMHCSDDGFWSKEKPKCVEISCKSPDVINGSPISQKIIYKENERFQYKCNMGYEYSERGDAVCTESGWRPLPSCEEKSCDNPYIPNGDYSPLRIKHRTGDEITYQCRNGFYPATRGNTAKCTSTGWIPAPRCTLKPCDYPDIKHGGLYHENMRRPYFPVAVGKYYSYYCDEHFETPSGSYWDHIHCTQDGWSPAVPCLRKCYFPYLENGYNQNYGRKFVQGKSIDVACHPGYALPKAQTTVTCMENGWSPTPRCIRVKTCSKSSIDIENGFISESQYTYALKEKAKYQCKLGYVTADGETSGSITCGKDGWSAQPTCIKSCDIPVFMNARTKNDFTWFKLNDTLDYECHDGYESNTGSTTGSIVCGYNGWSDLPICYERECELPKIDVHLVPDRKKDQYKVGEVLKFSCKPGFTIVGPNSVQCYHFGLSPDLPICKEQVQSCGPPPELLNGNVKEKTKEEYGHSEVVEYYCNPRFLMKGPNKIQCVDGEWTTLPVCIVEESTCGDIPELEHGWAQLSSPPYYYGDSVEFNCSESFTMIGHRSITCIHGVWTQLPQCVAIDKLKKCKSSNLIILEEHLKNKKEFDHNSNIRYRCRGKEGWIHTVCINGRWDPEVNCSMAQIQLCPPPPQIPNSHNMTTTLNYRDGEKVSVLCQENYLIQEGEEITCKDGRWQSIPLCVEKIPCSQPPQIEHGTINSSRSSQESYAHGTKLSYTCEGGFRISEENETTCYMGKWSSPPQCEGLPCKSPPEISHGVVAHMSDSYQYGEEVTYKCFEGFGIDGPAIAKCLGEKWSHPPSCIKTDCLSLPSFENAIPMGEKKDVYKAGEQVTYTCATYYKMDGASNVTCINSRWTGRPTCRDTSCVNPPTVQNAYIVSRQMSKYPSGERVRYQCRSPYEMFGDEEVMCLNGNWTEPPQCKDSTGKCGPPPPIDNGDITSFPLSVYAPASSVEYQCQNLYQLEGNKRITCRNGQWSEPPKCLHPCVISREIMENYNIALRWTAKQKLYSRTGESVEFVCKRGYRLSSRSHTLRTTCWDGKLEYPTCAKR

Regarding `COc1cccc2c1C(=O)c1c(O)c3c(c(O)c1C2=O)C[C@@](O)(C(=O)CO)C[C@@H]3O[C@H]1C[C@H](N)[C@H](O)[C@H](C)O1` [doxorubicin, reference compound], the plasma membrane calreticulin result with A549 cells and with H460 cells was “increases in plasma membrane calreticulin” each time.

B1: Ab7955 (antibody, V domains shown)
VH: LVESGGGVVRPGRSLRLSCVASGFTFNAYGMHWVRQGPGKGLEWLAVISYEGKTVYYADSVKDRFTISRDNSRNTVSLHLNNLRGEDTAVYYCAKGSASAAVLQHWGQGTLVSVTS
VL: MTQSPGSLAVSLGSRATINCKSSRSLLYRSNNKNYLAWYQQKPGQSPRLLIYWASSRESGVPDRFSGGGSGTSFTLTISSLQAEDVAVYYCQQYFNPPWTFGQGTKVEIK
notes: Recombinant human mAb; also called CFH mAb 7955
B1: in assay [1], the binding result is given as “binds”.
